Assay results from PubChem BioAssay (NCI).
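96-well plates; 48 h exposure; 5 concentrations. Endpoints by linear interpolation between flanking doses. Not reached: highest tested concentration assigned. Abbreviation: GI50, concentration required for 50% inhibition of growth. The concentration for full growth arrest is given as TGI.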

What was measured:
Experiment in all cases: NCI anticancer screen, dose series, 48 h
BT-549 breast = test system: BT-549 breast
786-0 renal = test system: 786-0 renal
UO-31 renal = test system: UO-31 renal
SNB-75 CNS = test system: SNB-75 CNS
NCI/ADR-RES ovarian = test system: NCI/ADR-RES ovarian
HS 578T breast = test system: HS 578T breast
HT29 colon = test system: HT29 colon
SF-295 CNS = test system: SF-295 CNS
OVCAR-3 ovarian = test system: OVCAR-3 ovarian
ACHN renal = test system: ACHN renal
RXF 393 renal = test system: RXF 393 renal
MDA-MB-468 breast = test system: MDA-MB-468 breast
SF-539 CNS = test system: SF-539 CNS
SF-268 CNS = test system: SF-268 CNS
MDA-MB-435 = test system: MDA-MB-435
COLO 205 colon = test system: COLO 205 colon
SR leukemia = test system: SR leukemia
SK-MEL-28 melanoma = test system: SK-MEL-28 melanoma
LOX IMVI melanoma = test system: LOX IMVI melanoma
OVCAR-5 ovarian = test system: OVCAR-5 ovarian
CAKI-1 renal = test system: CAKI-1 renal
DU-145 prostate = test system: DU-145 prostate
U251 CNS = test system: U251 CNS
RPMI-8226 leukemia = test system: RPMI-8226 leukemia
MCF7 breast = test system: MCF7 breast
SK-OV-3 ovarian = test system: SK-OV-3 ovarian
SNB-19 CNS = test system: SNB-19 CNS
HCT-116 colon = test system: HCT-116 colon
HCT-15 colon = test system: HCT-15 colon
IGROV1 ovarian = test system: IGROV1 ovarian
CCRF-CEM leukemia = test system: CCRF-CEM leukemia
PC-3 prostate = test system: PC-3 prostate
A498 renal = test system: A498 renal
NCI-H460 lung = test system: NCI-H460 lung
HL-60(TB) leukemia = test system: HL-60(TB) leukemia
EKVX NSCLC = test system: EKVX NSCLC
K-562 leukemia = test system: K-562 leukemia
MDA-MB-231 breast = test system: MDA-MB-231 breast
MALME-3M melanoma = test system: MALME-3M melanoma
M14 melanoma = test system: M14 melanoma
HOP-92 NSCLC = test system: HOP-92 NSCLC
UACC-62 melanoma = test system: UACC-62 melanoma
SN12C renal = test system: SN12C renal
MOLT-4 leukemia = test system: MOLT-4 leukemia
SW-620 colon = test system: SW-620 colon
NCI-H226 lung = test system: NCI-H226 lung
TK-10 renal = test system: TK-10 renal
OVCAR-4 ovarian = test system: OVCAR-4 ovarian
HCC-2998 colon = test system: HCC-2998 colon
SK-MEL-5 melanoma = test system: SK-MEL-5 melanoma
KM12 colon = test system: KM12 colon
T-47D breast = test system: T-47D breast
OVCAR-8 ovarian = test system: OVCAR-8 ovarian
SK-MEL-2 melanoma = test system: SK-MEL-2 melanoma
UACC-257 melanoma = test system: UACC-257 melanoma
NCI-H23 lung = test system: NCI-H23 lung
HOP-62 NSCLC = test system: HOP-62 NSCLC
A549 NSCLC = test system: A549 NSCLC
NCI-H522 lung = test system: NCI-H522 lung

Compound `COc1ccc(C(=O)/C=C/c2ccc(OC)c(OCc3ccccc3)c2)cc1OC` has a GI50 (BT-549 breast) of 2.55 µM, a TGI (BT-549 breast) of 8.42 µM and a GI50 (786-0 renal) of 4.13 µM. The TGI (786-0 renal) was > 100 µM, the GI50 (UO-31 renal) was 2.89 µM and the TGI (UO-31 renal) was > 100 µM. It also gave a GI50 (SNB-75 CNS) of 1.59 µM, a TGI (SNB-75 CNS) of 7.21 µM and a GI50 (NCI/ADR-RES ovarian) of 3 µM. The TGI (NCI/ADR-RES ovarian) was > 100 µM, the GI50 (HS 578T breast) was 7.71 µM and the TGI (HS 578T breast) was 53.5 µM. The GI50 (HT29 colon) was 4 µM, the TGI (HT29 colon) was > 100 µM and the GI50 (SF-295 CNS) was 5.43 µM. For the same compound, the TGI (SF-295 CNS) was > 100 µM, the GI50 (OVCAR-3 ovarian) was 2.96 µM and the TGI (OVCAR-3 ovarian) was 19.6 µM. For the same compound, the GI50 (ACHN renal) was 6.86 µM, the TGI (ACHN renal) was > 100 µM and the GI50 (RXF 393 renal) was 4.61 µM. For the same compound, the TGI (RXF 393 renal) was > 100 µM, the GI50 (MDA-MB-468 breast) was 2.94 µM and the TGI (MDA-MB-468 breast) was 19.6 µM. For the same compound, the GI50 (SF-539 CNS) was 2.04 µM, the TGI (SF-539 CNS) was 4.65 µM and the GI50 (SF-268 CNS) was 8.91 µM. For the same compound, the TGI (SF-268 CNS) was 70.9 µM, the GI50 (MDA-MB-435) was 3.47 µM and the TGI (MDA-MB-435) was > 100 µM. It also gave a GI50 (COLO 205 colon) of 4.33 µM, a TGI (COLO 205 colon) of 38 µM and a GI50 (SR leukemia) of 2.06 µM. For the same compound, the TGI (SR leukemia) was 8.61 µM, the GI50 (SK-MEL-28 melanoma) was 21.4 µM and the TGI (SK-MEL-28 melanoma) was > 100 µM. For the same compound, the GI50 (LOX IMVI melanoma) was 2.66 µM, the TGI (LOX IMVI melanoma) was > 100 µM and the GI50 (OVCAR-5 ovarian) was 2.97 µM. The TGI (OVCAR-5 ovarian) was > 100 µM, the GI50 (CAKI-1 renal) was 9.93 µM and the TGI (CAKI-1 renal) was > 100 µM. The GI50 (DU-145 prostate) was 3.83 µM, the TGI (DU-145 prostate) was > 100 µM and the GI50 (U251 CNS) was 3.02 µM. The TGI (U251 CNS) was > 100 µM, the GI50 (RPMI-8226 leukemia) was 2.64 µM and the TGI (RPMI-8226 leukemia) was > 100 µM. For the same compound, the GI50 (MCF7 breast) was 2.64 µM, the TGI (MCF7 breast) was > 100 µM and the GI50 (SK-OV-3 ovarian) was 8.23 µM. The TGI (SK-OV-3 ovarian) was > 100 µM, the GI50 (SNB-19 CNS) was 3.46 µM and the TGI (SNB-19 CNS) was > 100 µM. For the same compound, the GI50 (HCT-116 colon) was 3.35 µM, the TGI (HCT-116 colon) was > 100 µM and the GI50 (HCT-15 colon) was 2.69 µM. The TGI (HCT-15 colon) was > 100 µM, the GI50 (IGROV1 ovarian) was 3.42 µM and the TGI (IGROV1 ovarian) was > 100 µM. For the same compound, the GI50 (CCRF-CEM leukemia) was 3.22 µM, the TGI (CCRF-CEM leukemia) was > 100 µM and the GI50 (PC-3 prostate) was 4.99 µM. The TGI (PC-3 prostate) was > 100 µM, the GI50 (A498 renal) was 17.5 µM and the TGI (A498 renal) was 61.4 µM. For the same compound, the GI50 (NCI-H460 lung) was 3.67 µM, the TGI (NCI-H460 lung) was 20.3 µM and the GI50 (HL-60(TB) leukemia) was 5.06 µM. For the same compound, the TGI (HL-60(TB) leukemia) was 24.8 µM, the GI50 (EKVX NSCLC) was 13.4 µM and the TGI (EKVX NSCLC) was > 100 µM. The GI50 (K-562 leukemia) was 2.86 µM, the TGI (K-562 leukemia) was > 100 µM and the GI50 (MDA-MB-231 breast) was 4.11 µM. The TGI (MDA-MB-231 breast) was > 100 µM, the GI50 (MALME-3M melanoma) was 25.1 µM and the TGI (MALME-3M melanoma) was > 100 µM. The GI50 (M14 melanoma) was 9.79 µM, the TGI (M14 melanoma) was > 100 µM and the GI50 (HOP-92 NSCLC) was 4.67 µM. For the same compound, the TGI (HOP-92 NSCLC) was > 100 µM, the GI50 (UACC-62 melanoma) was 3.81 µM and the TGI (UACC-62 melanoma) was 33.9 µM. For the same compound, the GI50 (SN12C renal) was 2.89 µM, the TGI (SN12C renal) was > 100 µM and the GI50 (MOLT-4 leukemia) was 2.7 µM. The TGI (MOLT-4 leukemia) was 8.73 µM, the GI50 (SW-620 colon) was 3.04 µM and the TGI (SW-620 colon) was > 100 µM. It also gave a GI50 (NCI-H226 lung) of 6.35 µM, a TGI (NCI-H226 lung) of 95.9 µM and a GI50 (TK-10 renal) of 4.87 µM. For the same compound, the TGI (TK-10 renal) was > 100 µM, the GI50 (OVCAR-4 ovarian) was 5.2 µM and the TGI (OVCAR-4 ovarian) was 61.5 µM. For the same compound, the GI50 (HCC-2998 colon) was 3.39 µM, the TGI (HCC-2998 colon) was > 100 µM and the GI50 (SK-MEL-5 melanoma) was 11.7 µM. The TGI (SK-MEL-5 melanoma) was 27.5 µM, the GI50 (KM12 colon) was 3.93 µM and the TGI (KM12 colon) was 38.6 µM. It also gave a GI50 (T-47D breast) of 2.8 µM, a TGI (T-47D breast) of 80.6 µM and a GI50 (OVCAR-8 ovarian) of 3.25 µM. The TGI (OVCAR-8 ovarian) was > 100 µM, the GI50 (SK-MEL-2 melanoma) was 14.4 µM and the TGI (SK-MEL-2 melanoma) was 60.1 µM. For the same compound, the GI50 (UACC-257 melanoma) was 6.57 µM, the TGI (UACC-257 melanoma) was > 100 µM and the GI50 (NCI-H23 lung) was 4.39 µM. For the same compound, the TGI (NCI-H23 lung) was 43.6 µM, the GI50 (HOP-62 NSCLC) was 3.37 µM and the TGI (HOP-62 NSCLC) was 82.6 µM. For the same compound, the GI50 (A549 NSCLC) was 3.11 µM, the TGI (A549 NSCLC) was > 100 µM and the GI50 (NCI-H522 lung) was 3.18 µM. For the same compound, the TGI (NCI-H522 lung) was 26 µM.
